Assay results as given in the NIST ThermoML archive (doi:10.1016/j.jct.2012.10.025).

Conditions: Liquid; for speed of sound: Pulse-echo method; for mass density: Vibrating tube method

CCCCCCCCCCC [undecane]
Conditions | mass density, 1000 kPa [kg/m3] | mass density, 20000 kPa [kg/m3] | mass density, 40000 kPa [kg/m3] | mass density, 60000 kPa [kg/m3] | speed of sound, 1000 kPa [m/s] | speed of sound, 20000 kPa [m/s] | speed of sound, 40000 kPa [m/s] | speed of sound, 60000 kPa [m/s] | speed of sound, 80000 kPa [m/s] | speed of sound, 100000 kPa [m/s]
278 K | 752.64 | 764.19 | 775.36 | 785.14 | 1355.2 | 1455.4 | 1547.8 | 1629.3 | 1702.6 | 1770.5
288 K | 745.18 | 757.29 | 768.82 | 778.9 | 1315 | 1419.1 | 1514.4 | 1598 | 1673 | 1742.4
298 K | 737.58 | 750.5 | 762.53 | 773.01 | 1275.2 | 1383.2 | 1481.3 | 1566.9 | 1643.4 | 1714.4
308 K | 729.86 | 743.8 | 756.47 | 767.47 | 1236.3 | 1348.6 | 1449.8 | 1537.3 | 1615.1 | 1687.2
318 K | 722.02 | 737.19 | 750.63 | 762.26 | 1197.9 | 1314.1 | 1418.4 | 1508.1 | 1587.7 | 1661.4
